Measured values as given in US20090005348A1, “Compounds Having Cytokine Modulating Properties” (VITAL HEALTH SCIENCES PTY LTD, priority 2005, published 2009).

Legend:
IL-1β = IL-1β level in the plasma of hypercholesterolemic rabbits; type: in vivo, New Zealand albino rabbits; conditions: TA at 300 mg/kg feed, 2% cholesterol diet, 4 weeks
From the text: (§1) 47 female New Zealand albino rabbits were obtained at 4-8 weeks of age. They were divided into 7 treatment groups, which consisted of 5-10 animals per group. All the animals were placed on a vitamin E stripped diet, and all the diets contained 2% cholesterol except for the control group (which contained no cholesterol) for 4 weeks (containing the various TA or TPm treatments outlined below). [table] At the end of the treatment period the animals were sacrificed and the blood collected. The plasma was obtained from this blood and the levels of various markers of inflammation were determined and included: IL-1β, IL-6, IL-8, TNF, PAI-1, and CRP. Other markers of inflammation such as CD36 was determined from mRNA isolated from the aortas of the rabbits to determine expression levels.

PAI-1 = PAI-1 activity in the plasma of hypercholesterolemic rabbits; type: in vivo, New Zealand albino rabbits; conditions: TA at 300 mg/kg feed, 2% cholesterol diet, 4 weeks
From the text: as §1

TNF = TNF level in the plasma of hypercholesterolemic rabbits; type: in vivo, New Zealand albino rabbits; conditions: TA at 300 mg/kg feed, 2% cholesterol diet, 4 weeks
From the text: as §1

[1] = test system: T cells from old (>22 months) C57BL mice; assay: T cell proliferation ([3H] thymidine, anti-CD3/anti-CD28), old mice; type: cell-based; conditions: all the alpha-T treatments (12.5-100 μM), n=6, p<0.05, FIG. 8
Method: T cells from young (4 to 6 months) and old (>22 months) C57BL mice were isolated and purified from splenocytes by negative selection using Pan T cell isolation kit from Miltenyi Biotech.
The tocopherol phosphate mixture (alpha-TP) provided by Phosphagenics Limited was composed of approximately ⅔ mono-tocopheryl phosphate (MW 510.7) and ⅓ di-tocopheryl phosphate (MW 923.3), which makes the MW of the compound 598.0. Ethanol was used to dissolve the solid alpha-TP mixture to make a 107.52 mg/ml stock solution ([…]). 34 mg/ml alpha-tocopherol (alpha-T) in ethanol was used as a stock solution of alpha-T (79.06 mM). The solutions used for pre-incubation and incubation were prepared as follows: […]
After pre-incubation, the cells were stimulated (2×10^5 cells/well) in triplicate in a round bottom 96-well plate with plate-bound anti-CD3 (5 μg/ml, anti-CD3e (145-2C11), Pharmingen Cat# 553058) and soluble anti-CD28 (2 μg/ml, final concentration, anti-CD28 (37.51), Pharmingen Cat# 553294) in RPMI medium containing 5% FBS (final concentration and same concentration of vehicle, alpha-tocopherol or alpha-tocopherol phosphate used in the pre-incubation. The cells were incubated at 35° C., 5% CO2 for 64 hours, then, pulsed with 0.5 μCi of [^3H] thymidine for 8 hours. The cells were harvested onto filter paper and proliferation was quantified as the amount of [^3H] […]

Row | SMILES | plasma IL-1β (IL-1β) | plasma PAI-1 activity (PAI-1) | plasma TNF (TNF) | T cell proliferation compared to vehicle [1]
1 | CC(=O)Oc1c(C)c(C)c2c(c1C)CCC(C)(CCC[C@H](C)CCC[C@H](C)CCCC(C)C)O2 (stereo partly shown) [TA, tocopherol acetate] | modest decreases | modest decreases | modest decreases | 
2 | Cc1c(C)c2c(c(C)c1O)CC[C@@](C)(CCC[C@H](C)CCC[C@H](C)CCCC(C)C)O2 [alpha-T, alpha-tocopherol] |  |  |  | significant increase in proliferation
